Results on four molecules are retold here after patent US6605424B1, “Method of detecting inhibitors of agonist-specific desensitization” (Duke University, priority 1989, dated 2003).

No end group written: not given here.

Series [1] relates to β2ARs in permeabilized A431 cells. Put plainly: Desensitization of β2ARs in permeabilized A431 cells. It counts as cell-based, human. The method, then: Permeabilization of cells was accomplished as follows. Human epidermoid carcinoma A431 cells were grown to about 95% confluence in Dulbecco's modified Eagle's medium supplemented with 10% fetal calf serum. Cells were harvested with collagenase, washed three times with calcium-free phosphate-buffered saline (PBS), then washed twice in 150 mM potassium glutamate/10 mM Hepes/5 mM EGTA/7 mM MgCl2, pH 7.1 (KG buffer), and finally resuspended in KG buffer supplemented with 5 mM glucose and 2 mM ATP (KG-A buffer) at a density of 4×10^7 cells per ml.
At 4×10^7 cells per ml, about 0.015% digitonin was necessary to achieve permeabilization of >95% cells as assessed by staining with trypan blue. In all experiments, digitonin was added stepwise until >95% of the cells were trypan blue positive.

For series [2], the target named is T1, βAR kinase (Bos taurus, UniProt P21146).
T1 construct: βAR kinase was purified from bovine cerebral cortex; from tissue; host or cells: bovine cerebral cortex
T1 sequence (P21146 1-689): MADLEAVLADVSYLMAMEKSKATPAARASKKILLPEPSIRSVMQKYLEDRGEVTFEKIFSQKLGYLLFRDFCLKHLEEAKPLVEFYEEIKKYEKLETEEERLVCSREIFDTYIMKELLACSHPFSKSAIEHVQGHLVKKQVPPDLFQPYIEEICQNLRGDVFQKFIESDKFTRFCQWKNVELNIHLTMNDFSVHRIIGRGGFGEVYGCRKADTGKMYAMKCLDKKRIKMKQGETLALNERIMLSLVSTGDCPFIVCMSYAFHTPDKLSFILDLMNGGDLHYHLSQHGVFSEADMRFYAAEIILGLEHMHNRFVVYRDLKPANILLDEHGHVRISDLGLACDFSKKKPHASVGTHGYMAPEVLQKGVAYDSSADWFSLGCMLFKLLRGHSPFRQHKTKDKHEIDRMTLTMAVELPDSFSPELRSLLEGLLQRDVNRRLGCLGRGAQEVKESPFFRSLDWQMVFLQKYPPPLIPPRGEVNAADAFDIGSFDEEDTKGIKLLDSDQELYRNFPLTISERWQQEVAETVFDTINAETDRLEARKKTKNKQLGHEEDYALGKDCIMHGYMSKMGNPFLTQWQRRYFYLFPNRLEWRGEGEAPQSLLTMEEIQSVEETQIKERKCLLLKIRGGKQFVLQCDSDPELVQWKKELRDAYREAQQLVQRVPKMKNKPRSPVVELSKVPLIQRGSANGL
The series is described as follows: Phosphorylation of purified reconstituted β2ARs by purified βAR kinase (Example II). Format: biochemical, bovine. The method, then:
FIG. 7. […] (Inset) Relevant section of a representative autoradiogram. Data are means±SEM of three independent experiments. […] Desensitization was measured as the percent loss of stimulation by 10 μM (−)-isoproterenol of adenylyl cyclase activity in membranes. […] Data are means±SEM of four independent experiments.
Purified β2ARs were inserted into phosphatidylcholine vesicles by chromatography on Extracti-gel, followed by polyethylene glycol treatment and centrifugation at 280,000×g for 90 min (Cerione et al (1984) Biochemistry 23:4519-4525). Phosphorylation of the reconstituted receptors by purified βAR kinase was done in the presence of 50 μM (−)-isoproterenol as described (Benovic et al (1987) J. Biol. Chem. 262:9026-9032). Subsequently, the samples were subjected to sodium dodecyl sulfate polyacrylamide gel electrophoresis on 10% gels (Laemmli (1970) Nature 227:680-685). The phosphorylated β2ARs were visualized by autoradiography, and the corresponding bands were cut out and their content of ^32P quantified.

The target of series [3] is protein kinase C and cyclic nucleotide-dependent protein kinases. The note with it: cited from earlier work.
For the next series, the target named is protein kinase A (Homo sapiens, UniProt P17612). The series is described as follows: Peptides as substrates for protein kinase A. Format: biochemical.
Series [4] deals with T1, βAR kinase. Put plainly: Reversal of heparin inhibition of βAR kinase by polycations. The note with it: read-out: EC50 for reversal of heparin inhibition; in the presence of 1.1 μM heparin. It counts as biochemical, bovine. How it is done: (§1) Urea-treated rod outer segments were phosphorylated with βAR kinase as follows. Urea-treated rod outer segments (˜4 μg of rhodopsin) were incubated with βAR kinase (˜0.1 μg) for 10-15 min at 30° C. in the presence of 40 mM Tris-HCl, pH 7.4, 10 mM NaCl, 5 mM MgCl2, 1.5 mM EDTA, and 65 μM ATP (˜1 cpm/fmol) (total reaction volume was 40 μl). Reactions were stopped by the addition of 40 μl of sodium dodecyl sulfate sample buffer (see below) followed by sodium dodecyl sulfate-polyacrylamide gel electrophoresis. After autoradiography, the phosphorylated rhodopsin bands were excised and counted.

The target in series [5] is T1, βAR kinase. The series is described as follows: Phosphorylation of rhodopsin (urea-treated rod outer segments) by βAR kinase. As to conditions: read-out: IC50 (concentration of compound which gave 50% inhibition of βAR kinase); rhodopsin as substrate. It counts as biochemical, bovine. How it is done:
(§2) βAR kinase was purified from bovine cerebral cortex by modification of procedure of Benovic et al (J. Biol. Chem. (1987) 262:9026-9032). Briefly, 250 g of bovine cerebral cortex were homogenized with a Brinkmann tissue disrupter and centrifuged (40,000×g, 30 min). The supernatant was then precipitated with 13-26% ammonium sulfate. This material was initially chromatographed on a Ultrogel AcA34 column equilibrated with 5 mM Tris-HCl, pH 7.5, 2 mM EDTA, 10 μg/ml leupeptin, 5 μg/ml pepstatin, 10 μg/ml benzamidine, 0.2 mM phenylmethylsulfonyl fluoride (buffer A). The peak activity was diluted with an equal volume of buffer A containing 0.04% Triton X-100 before being applied to a DEAE-Sephacel column. Elution was accomplished with a 0-80 mM NaCl gradient in buffer A containing 0.02% Triton X-100. The peak activity was then applied to a CM-Fractogel column and eluted with a 0-100 mM NaCl gradient in buffer A containing 0.02% Triton X-100. The purified kinase is stable at 4° C. for several months. For these studies the βAR kinase preparations were >75% pure.
(§3) Rod outer segments were prepared from bovine retinas by stepwise sucrose gradient centrifugation (Wilden et al Biochemistry (1982) 21:3014-3022). Rhodopsin kinase-free rod outer segments were prepared by treatment with 5 M urea (Shichi et al J. Biol. Chem. (1978) 253:7040-7046) and consisted of ˜95% rhodopsin, as assessed by Coomassie Blue staining of sodium dodecyl sulfate-polyacrylamide gels.
as §1
Sodium dodecyl sulfate-polyacrylamide gel electrophoresis was performed by the method of Laemmli (Nature (1970) 227:680-685) using 10% homogeneous polyacrylamide slab gels. Sample buffer contained 8% sodium dodecyl sulfate, 10% glycerol, 5% 3-mercaptoethanol, 25 mM Tris-HCl, pH 6.5, and 0.003% bromphenol blue. After electrophoresis, gels were dried with a Bio-Rad gel dryer prior to autoradiography.

Substrate in series [6]: CC[C@H](C)[C@H](NC(=O)[C@H](Cc1ccc(O)cc1)NC(=O)[C@H](CC(N)=O)NC(=O)[C@H](CC(C)C)NC(=O)[C@@H]1CCCN1C(=O)[C@@H](NC(=O)[C@H](CCCNC(=N)N)NC(=O)[C@H](CC(C)C)NC(=O)[C@H](CCCCN)NC(=O)[C@H](CCCCN)NC(=O)[C@H](Cc1c[nH]cn1)NC(=O)[C@H](CCC(N)=O)NC(=O)[C@@H](NC(=O)[C@@H](NC(=O)[C@@H](N)C(C)C)[C@@H](C)O)C(C)C)[C@@H](C)O)C(=O)O
The series is described as above. As to conditions: other: rhodopsin as substrate, absence of heparin; 30.0 °C. Format: biochemical, bovine. How it is done:
as §2, with “The peak activity was then applied to a CM-Fractogel column and eluted with a 0-100 mM NaCl gradient in buffer A containing 0.02% Triton X-100. The purified kinase is stable at 4° C. for several months. For these studies the βAR kinase preparations were >75% pure.” left out
as §3
Urea-treated rod outer segments were phosphorylated with βAR kinase as follows. […] After autoradiography, the phosphorylated rhodopsin bands were excised and counted. […]

For `CC1CNCCN1S(=O)(=O)c1cccc2cnccc12` (stereo not shown) [Peptide H7, 1-5(isoquinolinesulfonyl)-2-methylpiperazine], in series [1] (100 μM), the “Inhibition of Desensitization, %” value turned out to be 22 ± 14%. In addition, the inhibition at 1 µM in series [1] (Homo sapiens, A-431, 1 μM) is 0%; on βAR kinase [2] (1 μM), 3 ± 4%. For the same molecule, the inhibition at 10 µM was 7 ± 5% in series [1] (Homo sapiens, A-431, 10 μM) and 2 ± 7% against βAR kinase [2] (10 μM). In addition, the inhibition at 100 µM is roughly 20% in series [1] (Homo sapiens, A-431, 100 μM) and roughly 20% against βAR kinase [2] (100 μM). The “Inhibition of βAR kinase, %” value at βAR kinase [2] (100 μM) turned out to be 19 ± 6%. Besides, the inhibition constant Ki in series [3] is roughly 5 µM.
Regarding QELLCLRRSSSKAYGNGYS [CT-1 (337-355)], the “substrate for protein kinase A” value at protein kinase A is reported as “serve as substrates for protein kinase A”.
Regarding polylysine, the EC50 at βAR kinase [4] was roughly 2.8 µM. Moreover, at βAR kinase [5], the IC50 was roughly 69 µM.

B1: βAR kinase (Bos taurus) (protein)
chain: MADLEAVLADVSYLMAMEKSKATPAARASKKILLPEPSIRSVMQKYLEDRGEVTFEKIFSQKLGYLLFRDFCLKHLEEAKPLVEFYEEIKKYEKLETEEERLVCSREIFDTYIMKELLACSHPFSKSAIEHVQGHLVKKQVPPDLFQPYIEEICQNLRGDVFQKFIESDKFTRFCQWKNVELNIHLTMNDFSVHRIIGRGGFGEVYGCRKADTGKMYAMKCLDKKRIKMKQGETLALNERIMLSLVSTGDCPFIVCMSYAFHTPDKLSFILDLMNGGDLHYHLSQHGVFSEADMRFYAAEIILGLEHMHNRFVVYRDLKPANILLDEHGHVRISDLGLACDFSKKKPHASVGTHGYMAPEVLQKGVAYDSSADWFSLGCMLFKLLRGHSPFRQHKTKDKHEIDRMTLTMAVELPDSFSPELRSLLEGLLQRDVNRRLGCLGRGAQEVKESPFFRSLDWQMVFLQKYPPPLIPPRGEVNAADAFDIGSFDEEDTKGIKLLDSDQELYRNFPLTISERWQQEVAETVFDTINAETDRLEARKKTKNKQLGHEEDYALGKDCIMHGYMSKMGNPFLTQWQRRYFYLFPNRLEWRGEGEAPQSLLTMEEIQSVEETQIKERKCLLLKIRGGKQFVLQCDSDPELVQWKKELRDAYREAQQLVQRVPKMKNKPRSPVVELSKVPLIQRGSANGL
notes: βAR kinase was purified from bovine cerebral cortex; from tissue; host or cells: bovine cerebral cortex
Consider B1, for which the Km in series [6] was determined as 5.3 µM.

Usually inhibition stands for the share of the control response that was lost under treatment. Broadly, the Ki is a measure of affinity in units of concentration, obtained from inhibition or displacement. In general, EC50 refers to the concentration giving half of the maximal effect. What is called Km is the substrate concentration at which the rate is half of its maximum.
